Legend:
Format in all cases: cell-based
[1] = tested on: Streptococcus mutans biofilms; assay: 1 day biofilm test with Azithromycine, Indocyanine Green and light; conditions: 15 μg with Indocyanine Green
Protocol: A further series of tests was carried out for Streptococcus mutans biofilms using Azithromycine (15 μg) and Indocyanine Green using light at 100 J/cm^2. For 1 day biofilms, the CFU was on an average <1 after treatment with dual light of 405 nm and 810 nm, respectively (at ratios of 3:1 to 1:3), whereas for either 405 nm or 810 nm wavelength light alone, the CFU was on an average below 100 after 1 day. For Azithromycine and Indocyanine Green without light, the CFU was about 1E06 to 1E07 after 1 day.

[2] = Antibiotic susceptibility test (doxycycline disc on petri dishes, with or without light)
Source text: Antibiotic Susceptibility Test Each test was repeated 3 times with identical treatment and growth parameters. The calculated CFU:s for 100 J/cm^2 treated doxycycline disc results are shown in table 1 and representing image of difference between treated and non-treated doxy petri dish are shown in FIG. 1. […] Starting from the left is the doxycycline inhibition effect in dark, in the middle the resulting petri dish with 405 nm and 810 nm exposure and on the right side the petri dish with 405 nm excitation is shown.

[3] = tested on: planktonic Streptococcus mutans; assay: Planktonic bacteria test, light activation of doxycycline
Source text: FIG. 2 is a bar chart showing bacteria growth of Streptococcus mutans for four different treatments, illustrating the effect of light activation of doxycycline against planktonic Streptococcus mutans; FIG. 2 is a bar chart showing light activation of doxycycline at 405 nm in a planktonic bacteria test. […] 100 J of antibacterial blue light had minor reduction in CFU compared to non-exposed control.

[4] = tested on: Streptococcus mutans 4 day biofilm; assay: 4-day biofilm effectivity test, colony formation (CFU)
Source text: FIG. 3 is a bar chart showing a comparison of the doxycycline effect with light excitations of 405 nm, dual-light (810 nm & 405 nm) and 370 nm to Streptococcus mutans colony formation in 4 day biofilm model; FIG. 4 is a bar chart showing the doxycycline effect against Streptococcus mutans 4 day biofilm for light excitation using a combination of light of 405 nm and 810 nm (“dual-light”) together with an ICG sensitizer, compared with light of 810 nm together with an ICG sensitizer (“doxy+aPDT”) and with 405 nm light without ICG sensitizer (“405”). A control of doxycycline is given as a reference; and […] is a bar chart showing a comparison of doxycycline effect with light excitations of […] on Streptococcus mutans colony formation in a 4-day biofilm effectivity test. FIG. 4 gives the CFU:s for Streptococcus mutans colonies on petri dishes after 4-day treatments, repeated 6 times with identical treatment and growth parameters, for four series of tests. The first (non-existent) bar represents the CFU:s for S. mutans colonies doxycycline which had been treated with doxycycline (30 μg) and dual light of 405 nm and 810 nm together with Indocyanine Green. The energy intensity of the light was 100 J/cm^2. […]

For CC[C@H]1OC(=O)[C@H](C)[C@@H](O[C@H]2C[C@@](C)(OC)[C@@H](O)[C@H](C)O2)[C@H](C)[C@@H](O[C@@H]2O[C@H](C)C[C@H](N(C)C)[C@H]2O)[C@](C)(O)C[C@@H](C)CN(C)[C@H](C)[C@@H](O)[C@]1(C)O [Azithromycine], the “CFU on an average” value ([1]; 405 nm light alone, 100 J/cm^2, 1 day) was “below 100”, the “CFU on an average” value ([1]; 810 nm light alone, 100 J/cm^2, 1 day) was “below 100” and the “CFU on an average” value ([1]; dual light 405 nm and 810 nm (ratios 3:1 to 1:3), 100 J/cm^2, 1 day biofilms) was less than 1.
In the case of C[C@H]1c2cccc(O)c2C(=O)C2=C(O)[C@]3(O)C(=O)C(C(N)=O)=C(O)[C@@H](N(C)C)[C@@H]3[C@@H](O)[C@@H]21 [doxycycline], the Regression diameter ([2]; 44 J/cm^2 405 nm + 60 J/cm^2 810 nm) is reported as 29,66666667, the Regression diameter ([2]; 83 J/cm^2 405 nm) is reported as 30,33333 and the Regression diameter ([2]; no light, disc test, repeated 3 times) is reported as 26,33333. For the same compound, the bacteria growth ([3]; doxycycline without light) was ≥ 10^7 CFU, the “bactericidal effect, bacteria killing” value ([3]; light activated at 405 nm) was “over 3 log” and the “improvement of antibacterial light effect with the addition of doxycycline” value ([4]; 370 nm light) was “over 1.5 log”. For the same compound, the “improvement of antibacterial light effect with the addition of doxycycline” value ([4]; 405 nm light) was “over 1.5 log”.

— patent US12161719B2, “Method of enhancing the antimicrobial action of systemically administered antibiotics” (Koite Health Oy, priority 2019, dated 2024)
